The values below come from US8354402B2, “Polyarylcarboxamides useful as lipid lowering agents” (Janssen Pharmaceutica N.V., priority 2000, dated 2013).

Structures can show the parent of a compound that is named as a salt. A value given as a limit tells only on which side of the number the result lay.

The first assay relates to ApoB secretion, HepG2 cells. Description: Quantification of the secretion of ApoB (HepG2 cells, immunoprecipitation, scintillation counting). In kind it is cell-based. Particulars: 24 hours of incubation, listed as 238. As for the experimental part: C.1. Quantification of the Secretion of ApoB
HepG2 cells were cultured in 24-well plates in Minimal Essential Medium Rega 3 containing 10% fetal calf serum. Rega 3 has the following composition: CaCl2 (264 μg/ml), KCl (400 μg/ml), MgSO4.7H2O (200 μg/ml), NaCl (6800 μg/ml), NaHCO3 (850 μg/ml), NaH2PO4.H2O (158 μg/ml), D-glucose (1000 μg/ml), phenol red (10 μg/ml), L-alanine (8.9 μg/ml), L-arginine HCl (12 μg/ml), L-asparagine.H2O (15 μg/ml), L-aspartic acid (13.3 μg/ml), L-cystine (24 μg/ml), L-glutamic acid (14.7 μg/ml), glycine (7.5 μg/ml), L-histidine.HCl .H2O (42 μg/ml), L-isoleucine (52 μg/ml), L-leucine (52 μg/ml), L-lysine.HCl (72.5 μg/ml), L-methionine (15 μg/ml), L-phenylalanine (32 μg/ml), L-proline (11.5 μg/ml), L-serine (10.5 μg/ml), L-threonine (48 μg/ml), L-tryptophan (10 μg/ml), L-tyrosine (36 μg/ml), L-valine (46 μg/ml), D-Ca pantothenate (1 μg/ml), choline chloride (1 μg/ml), folic acid (1 μg/ml), 1-enositol (2 μg/ml), nicotinamide (1 μg/ml), pyridoxal HCl (1 μg/ml), riboflavin (0.1 μg/ml) and thiamine HCl (1 μg/ml).
At 70% confluency, the medium was changed and the test compound or carrier (dimethylsulfoxide, 0.4% final concentration) was added. After 24 hours of incubation, the medium was transferred to Eppendorf tubes and cleared by centrifugation. A sheep antibody directed against either apo B was added to the supernatant and the mixture was kept at 8° C. for 24 hours. Then, rabbit anti-sheep antibody was added and the immune complex was allowed to precipitate for 24 hours at 8° C. The immunoprecipitate was pelleted by centrifugation for 25 minutes at 1320 g and washed twice with a buffer containing 40 mM 4-morpholinepropanesulfonic acid, 40 mM NaH2PO4, 100 mM NaF, 0.2 mM dithiothreitol, 5 mM ethylenediamine tetraacetic acid, 5 mM ethylenebis (oxyethylenenitrilo) tetraacetic acid, 1% Triton-X-100, 0.5% sodium deoxycholate, 0.1% sodium dodecylsulphate, 0.2 μM leupeptin and 0.2 μM phenylmethylsulphonylfluoride. Radioactivity in the pellet was quantified by liquid scintillation counting.
Resulting IC50 values are enumerated in Table C.1 for a number of compounds No. 1 to No. 123.
With `COC(=O)C(c1ccccc1)C1CCN(c2ccc(NC(=O)c3ccccc3-c3ccc(C(C)(C)C)cc3)cc2)CC1` (stereo not drawn) [Co. No. 238], the pIC50 is 7.824.

The assay is the same for the next values; noted with them: Homo sapiens, 24 hours of incubation.
`COC(=O)N(c1ccccc1)C1CCN(c2ccc(NC(=O)c3ccccc3-c3ccc(C(F)(F)F)cc3)cc2)CC1` [Co. No. 251] gave an IC50 of 0.00964 µM.

In turn, `CCCNC(=O)C(c1ccccc1)C1CCN(c2ccc(NC(=O)c3ccccc3-c3ccc(C(F)(F)F)cc3)cc2)CC1` (stereo not drawn) [Co. No. 38, N-[4-[4-[2-oxo-1-phenyl-2-(propylamino)ethyl]-1-piperidinyl]phenyl]-4′-(trifluoromethyl)-[1,1′-biphenyl]-2-carboxamide trifluoroacetate (1:1)] had an IC50 of 0.00662 µM. This IC50 and that of the compound before are within 1.5-fold of each other.

Staying with this assay, now noted: Homo sapiens, HepG2, 24 h, 24 hours of incubation.
For `O=C(Nc1ccc(C2CCN(C(C(=O)Nc3ccccc3)c3ccccc3)CC2)cc1)c1ccccc1-c1ccc(C(F)(F)F)cc1` (stereo not drawn) [Co. No. 80], 0.356 µM corresponded to half-maximal inhibition (IC50). On the same count and under the same terms, the result for `COC(=O)C(c1ccccc1)N1CCN(c2ccc(NC(=O)c3ccccc3-c3ccc(C(F)(F)F)cc3)c(C(F)(F)F)c2)CC1` (stereo not drawn) [Co. No. 206] reads 0.783 µM; that for `C#CCOC(=O)C(c1ccccc1)N1CCC(c2ccc(NC(=O)c3ccccc3-c3ccc(C(F)(F)F)cc3)cc2)CC1` (stereo not drawn) [Co. No. 225], 0.0676 µM. For `O=C(Nc1ccc(N2CCC(C(C(=O)Nc3ccccc3)c3ccccc3)CC2)cc1)c1ccccc1Oc1ccccc1` (stereo not drawn) [Co. No. 34], the IC50 was 1.55 µM. The same measure, in the same setting: the result for `COC(=O)C(c1ccccc1)C1CCN(c2ccc(NC(=O)c3ccccc3-c3ccccc3)cc2)CC1` (stereo not drawn) [Co. No. 157] reads 0.107 µM; that for `O=C(Nc1ccc(N2CCC(C(C(=O)NCc3ccccc3)c3ccccc3)CC2)cc1)c1ccccc1-c1ccccc1Cl` (stereo not drawn) [Co. No. 103], 0.0736 µM; that for `CCC(CC)OC(=O)C(c1ccccc1)C1CCN(c2ccc(NC(=O)c3ccccc3-c3ccc(C(F)(F)F)cc3)cc2)CC1` (stereo not drawn) [Co. No. 247], > 3 µM.

Consider `CCCNC(=O)C(c1ccccc1)C1CCN(c2ccc(NC(=O)c3ccccc3-c3cccc(N)c3)cc2)CC1` (stereo not drawn) [Co. No. 133], for which the IC50 is > 3 µM.

`CCc1ccc(-c2ccccc2C(=O)Nc2ccc(N3CCC(C(C(=O)OC)c4ccccc4)CC3)cc2)cc1` (stereo not drawn) [Co. No. 231]: the IC50 was < 0.03 µM. Still for that read-out and setting: for `O=C(Nc1ccc(N2CCN(C(C(=O)Oc3ccccc3)c3ccccc3)CC2)cc1)c1ccccc1-c1ccccc1` (stereo not drawn) [Co. No. 150] the value was 0.173 µM; for `CCCNC(=O)C(c1ccccc1)C1CCN(c2ccc(NC(=O)c3ccccc3-c3ccc(C(C)(C)C)cc3)cc2)CC1` (stereo not drawn) [Co. No. 132], 0.0502 µM; for `CCCNC(=O)C(c1ccccc1)C1CCN(c2ccc(NC(=O)c3ccccc3-c3ccc(F)cc3F)cc2)CC1` (stereo not drawn) [Co. No. 84, 2′,4′-difluoro-N-[4-[4-[2-oxo-1-phenyl-2-(propylamino)ethyl]-1-piperidinyl]phenyl]-[1,1′-biphenyl]-2-carboxamide], 0.0794 µM. Still for that read-out and setting: for `COC(=O)C(c1ccccc1)N1CCC(c2ccc(NC(=O)c3ccccc3-c3ccccc3)cc2)CC1` (stereo not drawn) [Co. No. 143] the value was 0.234 µM; for `CCCCCNC(=O)C(CN1CCN(c2ccc(NC(=O)c3ccccc3-c3ccc(C(F)(F)F)cc3)cc2)CC1)c1ccccc1` (stereo not drawn) [Co. No. 65], 0.24 µM.

Consider `O=C(Nc1ccc(N2CCC(C(C(=O)Nc3ccccc3)c3ccccc3)CC2)cc1)c1ccccc1-c1cccc(Cl)c1` (stereo not drawn) [Co. No. 108], for which half-maximal inhibition (IC50) was put at 0.188 µM. On the same count and under the same terms, the result for `COC(=O)C(c1ccccc1)N1CCCN(c2ccc(NC(=O)c3ccccc3-c3ccc(C(F)(F)F)cc3)cc2)CC1` (stereo not drawn) [Co. No. 119] reads 0.175 µM; that for `CCCNC(=O)C(c1ccccc1)C1CCN(c2ccc(NC(=O)c3ccccc3-c3ccc(Cl)cc3)cc2)CC1` (stereo not drawn) [Co. No. 68], ≤ 0.03 µM; that for `CCNC(=O)C(c1ccccc1)N1CCC(c2ccc(NC(=O)c3ccccc3-c3ccccc3)cc2)CC1` (stereo not drawn) [Co. No. 149], 0.0417 µM. Same read-out and setting: for `CCNC(=O)C(c1ccccc1)N1CCN(c2ccc(N(C)C(=O)c3ccccc3-c3ccc(C(F)(F)F)cc3)cc2)CC1` (stereo not drawn) [Co. No. 182] the value was 0.00762 µM. In turn, `CC(C)(C)c1ccc(-c2ccccc2C(=O)Nc2ccc(N3CCC(C(C(=O)NCc4ccccc4)c4ccccc4)CC3)cc2)cc1` (stereo not drawn) [Co. No. 53] had an IC50 of 0.00184 µM. Regarding `CCCCNC(=O)C(CN1CCN(c2ccc(NC(=O)c3ccccc3-c3ccc(C(F)(F)F)cc3)cc2)CC1)c1ccccc1` (stereo not drawn) [Co. No. 64], half-maximal inhibition (IC50) was put at 0.159 µM. Compared with the last compound, the IC50 is about 86-fold higher. The same measure, in the same setting: for `CC(C)=CCOC(=O)C(c1ccccc1)N1CCC(c2ccc(NC(=O)c3ccccc3-c3ccc(C(F)(F)F)cc3)cc2)CC1` (stereo not drawn) [Co. No. 220] the value was < 0.03 µM; for `O=C(Nc1ccc(C2CCN(C(C(=O)OCc3ccccc3)c3ccccc3)CC2)cc1)c1ccccc1-c1ccc(C(F)(F)F)cc1` (stereo not drawn) [Co. No. 151], 0.612 µM. On the same count and under the same terms, the result for `CCNC(=O)C(c1ccccc1)C1CCN(c2ccc(NC(=O)c3ccccc3-c3ccc(C)cc3)cc2)CC1` (stereo not drawn) [Co. No. 94] reads 0.0441 µM; that for `O=C(Nc1ccc(N2CCC(C(C(=O)Nc3ccccc3)c3ccccc3)CC2)cc1)c1ccccc1-c1cc(Cl)cc(Cl)c1` (stereo not drawn) [Co. No. 106], 0.251 µM; that for `O=C(Nc1ccc(N2CCC(C(C(=O)Nc3ccccc3)c3ccccc3)CC2)cc1)c1ccccc1-c1ccc(Cl)cc1` (stereo not drawn) [Co. No. 113], 0.115 µM.

`CCCNC(=O)C(c1ccccc1)C1CCN(c2ccc(NC(=O)c3cccc4c3-c3ccccc3C4)cc2)CC1` (stereo not drawn) [Co. No. 12] had an IC50 of 0.231 µM. In turn, `CCNC(=O)C(c1ccccc1)N1CCN(c2ccc(NC(=O)c3cc(OC)ccc3-c3ccc(C(F)(F)F)cc3)cc2)CC1` (stereo not drawn) [Co. No. 195] had an IC50 of 0.0897 µM. `COC(=O)C(c1ccccc1)N1CCN(c2ccc(NC(=O)c3c(F)cccc3-c3ccc(C(F)(F)F)cc3)cc2)CC1` (stereo not drawn) [Co. No. 187] showed an IC50 of 0.0411 µM.

`C#CCOC(=O)C(c1ccccc1)C1CCN(c2ccc(NC(=O)c3ccccc3-c3ccc(C(F)(F)F)cc3)cc2)CC1` (stereo not drawn) [Co. No. 248]: the IC50 was 0.0685 µM. Still for that read-out and setting: for `O=C(Nc1ccc(C2=CCN(C(C(=O)NCc3ccccc3)c3ccccc3)CC2)cc1)c1ccccc1-c1ccccc1` (stereo not drawn) [Co. No. 166] the value was 0.036 µM; for `CC(C)=CCOC(=O)C(c1ccccc1)C1CCN(c2ccc(NC(=O)c3ccccc3-c3ccc(C(F)(F)F)cc3)cc2)CC1` (stereo not drawn) [Co. No. 245], 0.525 µM; for `O=C(Nc1ccc(C2=CCN(C(C(=O)OCc3ccccc3)c3ccccc3)CC2)cc1)c1ccccc1-c1ccc(C(F)(F)F)cc1` (stereo not drawn) [Co. No. 168], 0.132 µM. On the same count and under the same terms, for `CCNC(=O)C(c1ccccc1)C1CCN(c2ccc(NC(=O)c3ccccc3-c3cccc(Cl)c3)cc2)CC1` (stereo not drawn) [Co. No. 86] the value was 0.0841 µM. The same measure, in the same setting: for `O=C(Nc1ccc(N2CCC(C(C(=O)Nc3ccccc3)c3ccccc3)CC2)cc1)c1ccccc1-c1ccc(F)cc1` (stereo not drawn) [Co. No. 114] the value was 0.836 µM; for `COC(=O)C(c1ccccc1)N1CCN(c2ccc(N(C)C(=O)c3ccccc3-c3ccc(C(F)(F)F)cc3)cc2)CC1` (stereo not drawn) [Co. No. 183], 0.0216 µM. With `O=C(Nc1ccc(N2CCC(C(C(=O)NCc3ccccc3)c3ccccc3)CC2)cc1)c1ccccc1-c1ccc(Cl)cc1` (stereo not drawn) [Co. No. 100], the IC50 is 0.0116 µM. Against the preceding compound, the IC50 is about 1.9-fold lower. Still for that read-out and setting: the result for `COC(=O)C(c1ccccc1)N1CCN(c2ccc(NC(=O)c3ccccc3-c3ccc(C(F)(F)F)cc3)cc2C(F)(F)F)CC1` (stereo not drawn) [Co. No. 210] reads 0.483 µM; that for `O=C(Nc1ccc(N2CCC(C(C(=O)NCc3ccccc3)c3ccccc3)CC2)cc1)c1ccccc1-c1cccc2ccccc12` (stereo not drawn) [Co. No. 136], 0.148 µM. Still for that read-out and setting: the result for `CC(C)NC(=O)C(c1ccccc1)C1CCN(c2ccc(NC(=O)c3ccccc3Cc3ccccc3)cc2)CC1` (stereo not drawn) [Co. No. 28] reads 0.767 µM; that for `COC(=O)C(c1ccccc1)N1CCN(c2ccc(NC(=O)c3cc(OC)c(OC)cc3-c3ccc(C(F)(F)F)cc3)cc2)CC1` (stereo not drawn) [Co. No. 193], 0.235 µM.

`Nc1cccc(-c2ccccc2C(=O)Nc2ccc(N3CCC(C(C(=O)Nc4ccccc4)c4ccccc4)CC3)cc2)c1` (stereo not drawn) [Co. No. 111] gave an IC50 of 0.221 µM.

`CC(C)NC(=O)C(c1ccccc1)C1CCN(c2ccc(NC(=O)c3ccccc3COc3ccccc3)cc2)CC1` (stereo not drawn) [Co. No. 25]: the IC50 is 0.287 µM. Take `O=C(Nc1ccc(C2CCN(C(C(=O)OCc3ccccc3)c3ccccc3)CC2)cc1)c1ccccc1-c1ccccc1` (stereo not drawn) [Co. No. 153]: the IC50 was 1.55 µM. This IC50 is about 5.4-fold higher than that of the compound before.

Regarding `COC(=O)C(c1ccccc1)N1CCN(c2ccc(NC(=O)c3ccccc3-c3ccc(C(F)(F)F)cc3)cc2Cl)CC1` (stereo not drawn) [Co. No. 205], the IC50 was 0.0475 µM.

In general, pIC50 refers to −log10 of the IC50, conventionally taken in molar units. One may read the IC50 as the concentration needed to halve the response being measured. Lower therefore signals greater potency.
